Peptide text beside a SMILES is read from it.
Target: Neurotensin receptor type 1 (Mus musculus) (UniProt O88319)
Conditions: Cerebellum
Description: Tested for change in binding affinity in neonatal mouse whole brain (minus cerebellum)

Chain of Neurotensin receptor type 1 (Mus musculus) (O88319 whole entry): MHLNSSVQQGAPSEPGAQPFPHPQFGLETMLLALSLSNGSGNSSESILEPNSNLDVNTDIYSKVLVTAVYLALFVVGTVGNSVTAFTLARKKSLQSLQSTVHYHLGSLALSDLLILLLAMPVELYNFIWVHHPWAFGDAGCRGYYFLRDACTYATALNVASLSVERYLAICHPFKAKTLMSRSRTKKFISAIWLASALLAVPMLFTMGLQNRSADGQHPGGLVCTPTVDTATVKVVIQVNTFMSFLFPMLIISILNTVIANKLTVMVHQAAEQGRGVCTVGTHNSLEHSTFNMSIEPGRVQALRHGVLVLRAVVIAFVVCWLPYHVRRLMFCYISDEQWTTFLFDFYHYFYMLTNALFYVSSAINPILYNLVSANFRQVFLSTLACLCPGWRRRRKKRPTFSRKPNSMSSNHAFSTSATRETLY

`CC[C@@H](C)[C@H](NC(=O)[C@H](Cc1ccc(O)cc1)NC(=O)[C@@H]1CCCN1C(=O)[C@H](CCCNC(=N)N)NC(=O)[C@@H](N)CCCNC(=N)N)C(=O)N[C@@H](CC(C)C)C(=O)O` was tested. Which Ki(1.8x10e-11) did it give?
The Ki(1.8x10e-11) was 1 M.

Target: Neurotensin receptor type 1 (Mus musculus) (UniProt O88319)
Test: Tested for change in binding affinity to Neurotensin (NT) receptor in neonatal mouse whole brain (minus cerebellum)
Assay type: tissue-based
Conditions: not given

With `CC[C@@H](C)[C@H](NC(=O)[C@H](C)NC(=O)[C@@H]1CCCN1C(=O)[C@H](CCCN=C(N)N)NC(=O)[C@@H](N)CCCN=C(N)N)C(=O)N[C@@H](C)C(=O)O` as the compound, how does the Ki ratio read?
Its Ki ratio is 220000.

Which Ki ratio does the source give for `CC[C@@H](C)[C@H](NC(=O)[C@H](C)NC(=O)[C@@H]1CCCN1C(=O)[C@H](CCCN=C(N)N)NC(=O)[C@@H](N)CCCN=C(N)N)C(=O)N[C@@H](CC(C)C)C(=O)O` here?
The Ki ratio was 6100.

How did the Ki ratio turn out when `CC[C@@H](C)[C@H](NC(=O)[C@H](Cc1ccc(O)cc1)NC(=O)[C@@H]1CCCN1C(=O)[C@H](C)NC(=O)[C@@H](N)CCCN=C(N)N)C(=O)N[C@@H](CC(C)C)C(=O)O` was run?
Its Ki ratio is 120.

`CC[C@@H](C)[C@H](NC(=O)[C@H](Cc1ccc(O)cc1)NC(=O)[C@@H]1CCCN1C(=O)[C@H](CCCN=C(N)N)NC(=O)[C@@H](N)CCCN=C(N)N)C(=O)N[C@@H](C)C(=O)O` was tested. Which Ki ratio did it give?
The Ki ratio was 11000.

For `CC[C@@H](C)[C@H](NC(=O)[C@H](Cc1ccc(O)cc1)NC(=O)[C@@H]1CCCN1C(=O)[C@H](CCCN=C(N)N)NC(=O)[C@H](C)N)C(=O)N[C@@H](CC(C)C)C(=O)O`, which Ki ratio is on record?
The Ki ratio was 14.

`CC(C)C[C@H](NC(=O)[C@H](C)NC(=O)[C@H](Cc1ccc(O)cc1)NC(=O)[C@@H]1CCCN1C(=O)[C@H](CCCN=C(N)N)NC(=O)[C@@H](N)CCCN=C(N)N)C(=O)O` (H-RRPYAL-OH) was tested. Which Ki ratio did it give?
The Ki ratio was 250.

With `CC[C@@H](C)[C@H](NC(=O)[C@H](Cc1ccc(O)cc1)NC(=O)[C@H](C)NC(=O)[C@H](CCCN=C(N)N)NC(=O)[C@@H](N)CCCN=C(N)N)C(=O)N[C@@H](CC(C)C)C(=O)O` as the compound, how does the Ki ratio read?
The Ki ratio was 50.

Target: Neurotensin receptor type 1 (Mus musculus, UniProt O88319)
Sequence (O88319 whole entry): as above
Test: Inhibition of specific binding of [125I]-Tyr3-NT(1-13) to NT receptors in neonatal mouse whole brain (minus cerebellum)
Assay type: tissue-based
Conditions: not given

Which Ki does the source give for `CC[C@H](C)[C@H](NC(=O)[C@H](C)NC(=O)[C@@H]1CCCN1C(=O)[C@H](CCCN=C(N)N)NC(=O)[C@@H](N)CCCN=C(N)N)C(=O)N[C@@H](CC(C)C)C(=O)O` here?
Its Ki is 110 nM.

With `CC[C@H](C)[C@H](NC(=O)[C@H](Cc1ccc(O)cc1)NC(=O)[C@@H]1CCCN1C(=O)[C@H](CCCNC(=N)N)NC(=O)[C@H](CCCNC(=N)N)NC(=O)[C@@H]1CCCN1C(=O)[C@H](CCCCN)NC(=O)[C@H](CC(N)=O)NC(=O)[C@H](CCC(=O)O)NC(=O)[C@H](Cc1ccc(O)cc1)NC(=O)[C@H](CC(C)C)NC(C)=O)C(=O)N[C@@H](CC(C)C)C(=O)O` as the compound, how does the Ki read?
The Ki was 0.11 nM.

`CC[C@H](C)[C@H](NC(=O)[C@H](Cc1ccc(O)cc1)NC(=O)[C@@H]1CCCN1C(=O)[C@H](CCCNC(=N)N)NC(=O)[C@H](CCCNC(=N)N)NC(=O)[C@@H]1CCCN1C(C)=O)C(=O)N[C@@H](CC(C)C)C(=O)O` (Ac-PRRPYIL-OH) was tested. Which Ki did it give?
Its Ki is 0.1 nM.

For `CC[C@H](C)[C@H](NC(=O)[C@H](Cc1ccc(O)cc1)NC(=O)[C@@H]1CCCN1C(=O)[C@H](CCCNC(=N)N)NC(=O)[C@H](CCCNC(=N)N)NC(=O)[C@@H]1CCCN1C(=O)[C@H](CCCCN)NC(=O)[C@H](CC(N)=O)NC(C)=O)C(=O)N[C@@H](CC(C)C)C(=O)O` (Ac-NKPRRPYIL-OH), which Ki is on record?
Its Ki is 0.013 nM.

For `CC[C@H](C)[C@H](NC(=O)[C@H](Cc1ccc(O)cc1)NC(=O)[C@@H]1CCCN1C(=O)[C@H](CCCNC(=N)N)NC(=O)[C@H](CCCNC(=N)N)NC(=O)[C@@H]1CCCN1C(=O)[C@H](CCCCN)NC(=O)[C@H](CC(N)=O)NC(=O)[C@H](CCC(=O)O)NC(C)=O)C(=O)N[C@@H](CC(C)C)C(=O)O` (Ac-ENKPRRPYIL-OH), which Ki is on record?
Its Ki is 0.12 nM.

`CC[C@H](C)[C@H](NC(=O)[C@H](Cc1ccc(O)cc1)NC(=O)[C@@H]1CCCN1C(=O)[C@H](CCCNC(=N)N)NC(=O)[C@H](C)N)C(=O)N[C@@H](CC(C)C)C(=O)O` was tested. Which Ki did it give?
The Ki was 0.25 nM.

`CC[C@H](C)[C@H](NC(=O)[C@H](C)NC(=O)[C@@H]1CCCN1C(=O)[C@H](CCCN=C(N)N)NC(=O)[C@@H](N)CCCN=C(N)N)C(=O)N[C@@H](C)C(=O)O` was tested. Which Ki did it give?
Its Ki is 3900 nM.

How did the Ki turn out when `CC[C@H](C)[C@H](NC(=O)[C@H](Cc1ccc(O)cc1)NC(=O)[C@@H]1CCCN1C(=O)[C@H](CCCNC(=N)N)NC(=O)[C@@H](N)CCCNC(=N)N)C(N)=O` was run?
The Ki was 12000 nM.

For `CC(C)C[C@H](NC(=O)[C@H](C)NC(=O)[C@H](Cc1ccc(O)cc1)NC(=O)[C@@H]1CCCN1C(=O)[C@H](CCCNC(=N)N)NC(=O)[C@@H](N)CCCNC(=N)N)C(=O)O` (H-RRPYAL-OH), which Ki is on record?
Its Ki is 4.5 nM.

With `CC[C@H](C)[C@H](NC(=O)[C@H](Cc1ccc(O)cc1)NC(=O)[C@@H]1CCCN1C(=O)[C@H](CCCNC(=N)N)NC(=O)[C@H](CCCNC(=N)N)NC(=O)[C@@H]1CCCN1C(=O)[C@H](CCCCN)NC(C)=O)C(=O)N[C@@H](CC(C)C)C(=O)O` as the compound, how does the Ki read?
Its Ki is 0.024 nM.

With `CC[C@H](C)[C@H](NC(=O)[C@H](Cc1ccc(O)cc1)NC(=O)[C@@H]1CCCN1C(=O)[C@H](CCCN=C(N)N)NC(=O)[C@H](CCCN=C(N)N)NC(=O)[C@@H]1CCCN1C(=O)[C@H](CCCCN)NC(=O)[C@H](CC(N)=O)NC(=O)[C@H](CCC(=O)O)NC(=O)[C@H](Cc1ccc(O)cc1)NC(C)=O)C(=O)N[C@@H](CC(C)C)C(=O)O` (Ac-YENKPRRPYIL-OH) as the compound, how does the Ki read?
The Ki was 0.21 nM.

How did the Ki turn out when `CC[C@H](C)[C@H](NC(=O)[C@H](Cc1ccc(O)cc1)NC(=O)[C@H](C)NC(=O)[C@H](CCCN=C(N)N)NC(=O)[C@@H](N)CCCN=C(N)N)C(=O)N[C@@H](CC(C)C)C(=O)O` was run?
Its Ki is 0.92 nM.

`CC[C@H](C)[C@H](NC(=O)[C@H](Cc1ccc(O)cc1)NC(=O)[C@@H]1CCCN1C(=O)[C@H](CCCNC(=N)N)NC(=O)[C@@H](N)CCCNC(=N)N)C(=O)N[C@@H](C)C(=O)O` was tested. Which Ki did it give?
The Ki was 200 nM.

For `CC[C@H](C)[C@H](NC(=O)[C@H](Cc1ccc(O)cc1)NC(=O)[C@@H]1CCCN1C(=O)[C@H](C)NC(=O)[C@@H](N)CCCN=C(N)N)C(=O)N[C@@H](CC(C)C)C(=O)O`, which Ki is on record?
Its Ki is 2.1 nM.

From ChEMBL document CHEMBL1126483 (Bioorg Med Chem Lett, 1993)
